Results: US20130059850A1, “AZA-INDOLE DERIVATIVES USEFUL AS MODULATORS OF FAAH” (MERCK SHARP & DOHME CORP., priority 2010, published 2013)

How the values were obtained:
[1] = target: T1, human FAAH (Fatty Acid Amide Hydrolase) (Homo sapiens, UniProt O00519); assay: FAAH enzyme assay on CHO cell lysate expressing human FAAH (human LY), AAMCA fluorescent substrate; type: biochemical; conditions: human FAAH_CHO cell lysate
T1 construct: The full length FAAH was subcloned into the mammalian expression vector, pcDEF.neo, using XbaI and EcoRI restriction sites; expressed in transfected cells
T1 sequence (O00519 1-579): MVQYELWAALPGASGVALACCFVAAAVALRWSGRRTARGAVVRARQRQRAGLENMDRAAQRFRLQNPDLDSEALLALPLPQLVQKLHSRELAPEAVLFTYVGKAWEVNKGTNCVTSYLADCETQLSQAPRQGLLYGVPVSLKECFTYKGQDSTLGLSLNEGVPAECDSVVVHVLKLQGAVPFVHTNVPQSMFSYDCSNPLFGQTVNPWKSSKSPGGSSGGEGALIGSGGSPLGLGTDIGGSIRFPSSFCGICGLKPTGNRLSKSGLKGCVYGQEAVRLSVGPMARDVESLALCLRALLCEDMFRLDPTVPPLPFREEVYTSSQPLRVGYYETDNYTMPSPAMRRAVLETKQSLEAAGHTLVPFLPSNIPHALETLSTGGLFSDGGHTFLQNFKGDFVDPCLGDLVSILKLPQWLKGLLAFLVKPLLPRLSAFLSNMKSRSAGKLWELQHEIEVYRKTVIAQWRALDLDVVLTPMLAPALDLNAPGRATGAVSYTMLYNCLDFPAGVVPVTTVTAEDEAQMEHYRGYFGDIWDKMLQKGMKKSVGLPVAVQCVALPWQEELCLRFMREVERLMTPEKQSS
Source text: (§1) To assist in assay development stable cell lines for human, murine and rat full length FAAH were developed. Human FAAH cDNA (Accession No: NM_001441.1) was purchased from Origene (Rockville, Md.). The full length FAAH was subcloned into the mammalian expression vector, pcDEF.neo, using XbaI and EcoRI restriction sites and used for stable cell line generation.
CHO cells expressing FAAH were used to prepare either crude cell lysate or microsome fractions. To harvest cells, tissue culture media was decanted, the monolayer washed three times with Ca^++Mg^++ free PBS and cells recovered after […] in enzyme free dissociation media (Millipore Corp, Billerica, Mass.). Cells were collected by centrifuging at 2000 rpm for 15 min. and the cell pellet re-suspended with 50 mM HEPES (pH 7.4) containing 1 mM EDTA and the protease inhibitors aprotinin (1 mg/ml) and leupeptin (100 μM). The suspension was sonicated at 4° C. and the cell lysate recovered after centrifuging at 12,000×g (14,600 rpm, SS34 rotor) for 20 min at 4° C. to form a crude pellet of cell debris, nuclei, peroxisomes, lysosomes, and mitochondria; the supernatant or cell lysate was used for FAAH enzyme assay. In some cases, microsomes fractions enriched in FAAH were prepared by centrifuging the cell lysate further at 27,000 rpm (100,000×g) in SW28 rotor for 50 minutes at 4° C. The pellet containing FAAH-enriched microsomes was re-suspend in 50 mM HEPES, (pH 7.4) 1 mM EDTA, and any remaining DNA sheared by passage of material through a 23 gauge needle and aliquots of enzyme were store at −80° C. prior to use.
(§2) (American Radiolabeled Chemicals; 1 mCi/ml) with FAAH (Life Sciences (1995), 56, 1999-2005 and Journal of Pharmacology and Experimented Therapeutics (1997), 283, 729-734), Analytical. Biochemistry (2003), 318, 270-5. In addition, routine assays were performed monitoring hydrolysis of arachidonyl-7-amino-4-methylcoumarin amide (AAMCA) by following increase in fluorescence upon release of 7-amino 4-methyl coumarin (λEX=355 nm, μEM=460 nm). Analytical. Biochemistry (2005). 343, 143-51
(§3) Assays are performed on either cell lysate or microsome fractions prepared as described or in whole cell format employing either the fluorescent substrate AAMCA (Cayman chemical, Ann Arbor, Mich.,) or ^3H-anandamide ([ETHANOLAMINE-1-3H] American Radiolabeled Chemicals; 1 mCi/ml). The cell lysate or microsome assay is performed in black PerkinElmer OptiPlates-384F by adding FAAH_CHO (whole cell (human whole cell or human WC), cell lysate (human cell lysate or human LY) or microsome) in assay buffer (50 mM Phosphate, pH 8.0, 1 mM EDTA, 200 mM KCl, 0.2% glycerol, 0.1% fatty acid free BSA) to each well, followed by either DMSO or compound and allowed to incubate at 22-25° C. for fifteen minutes. AAMCA substrate was used to achieve a final concentration of 1 μM and reaction allowed to proceed at room temperature for 1-3 hours. Fluorescent release as a measure of FAAH activity was monitored by reading the plate in a Envision plate Reader (Ex: 360/40 nM; Em: 460/40 nM). Whole cell assay is conducted with cells harvested after rinsing tissue culture flasks three times with Ca^++Mg^++ free PBS, incubating for […] in Enzyme free dissociation media and centrifuging for 5 minutes at 1,000 rpm in table top centrifuge. Cells are resuspended in assay buffer at desired cell number in (4×10^4 cells/assay in 96-well format; 1×10^4 cells/assay in 384-well format) and assayed as described.

[2] = target: T1, human FAAH (Fatty Acid Amide Hydrolase); assay: FAAH whole cell assay on CHO cells expressing human FAAH (human WC), AAMCA fluorescent substrate; type: cell-based; conditions: human FAAH_CHO whole cell
Source text: as §1
Murine (accession number NM_010173) and Rat FAAH (accession number NM_024132) was amplified by reverse transcriptase polymerase chain reaction (RT-PCR) from brain cDNA (BD Biosciences, San Jose, Calif.) using primers 1 and 2 or primers 1 and 3 respectively (see Table). The resulting PCR product was ligated into pCR4 TOPO and DNA sequence confirmed. The full length murine FAAH was subcloned into the mammalian expression vector, pcDEFneo using either EcoRI (murine) or KpnI and EcoRI (rat) restriction sites. Chinese hamster ovary cells (CHO) were transfected following manufacturers protocol (AMAXA). Forty eight hours post transfection, cells were trypsinized and transferred to 96 well plates in Iscove's DMEM media supplemented with 2 mM Glutamine, 10% fetal calf serum, 1 mg/ml geneticin and HT Supplement (0.1 mM sodium hypoxanthine, 0.016 mM thymidine) in order to isolate single clones. Following selection in geneticin, individual clones were selected and FAAH activity was assessed using a whole cell fluorescent anandamide assay, modified from Ramarao et al (2005). Following removal of tissue culture media cells were dislodged following addition of Cellstripper (Mediatech, Inc. Manassas, Va.) and transferred to 96 well black clear bottom assay plate, centrifuged at 1,000 rpm for 3 mins and media removed and replaced with assay buffer (50 mM Tris pH8.0, 1 mM EDTA, 0.1% fatty acid free BSA). The reaction was initiated by addition of fluorescent substrate, AMC Arachidonoyl Amide (Cayman Chemical, Ann Arbor, Mich.) to 1 μM and reaction allowed to proceed for 2 hours at room temperature. Release of fluorescence was monitored in a CytoFluor Multiplate Reader. Cells expressing the highest amount of FAAH activity were selected for study with FAAH inhibitors.
as §2
as §3, with “Cells are resuspended in assay buffer at desired cell number in (4×10^4 cells/assay in 96-well format; 1×10^4 cells/assay in 384-well format) and assayed as described.” left out

Structure (SMILES) | IC50 [1] [nM] | IC50 [2] [nM]
Clc1ccc(Sc2c(-c3ccc4c(c3)OCCO4)[nH]c3ncccc23)cc1 [Example B6, 3-[(4-chlorophenyl)sulfanyl]-2-(2,3-dihydro-1,4-benzodioxin-6-yl)-1H-pyrrolo[2,3-b]pyridine] | 4.42 | 11.8
COc1cccc(-c2[nH]c3ncccc3c2Sc2ccc(Cl)cc2)c1 [Example B7] | 2.23 | 18.8
COc1ccc(-c2[nH]c3ncccc3c2Sc2ccc(Cl)cc2)cc1 [Example B8] | 2.34 | 10.3
COc1ccc(-c2[nH]c3ncccc3c2Sc2ccc(Cl)cc2)cc1OC [Example B9] | 1.43 | 3.83
Clc1ccc(Sc2c(-c3cccc4[nH]ccc34)[nH]c3ncccc23)cc1 [Example B10] | 3.88 | 20.7
Cn1ccc2cc(-c3[nH]c4ncccc4c3Sc3ccc(Cl)cc3)ccc21 [Example B11] | 3.29 | 10.2
CC(O)c1ccc(-c2[nH]c3ncccc3c2Sc2ccc(Cl)cc2)cc1 (stereo not drawn) [Example B12] | 11.6 | 27.1
Clc1ccc(Sc2c(-c3ccc4c(c3)OCCO4)[nH]c3ncccc23)nc1 [Example B13] | 2.89 | 13
COc1ncc(-c2[nH]c3ncccc3c2Sc2ccc(Cl)cc2)c(OC)n1 [Example B14] | 9.47 | 47.4
Clc1ccc(Sc2c(C3=CCCC3)[nH]c3ncccc23)cc1 [Example B15] | 107 | 1110
N#CC1CC=C(c2[nH]c3ncccc3c2Sc2ccc(Cl)cc2)CC1 (stereo not drawn) [Example B16] | 21.7 | 119
Clc1ccc(Sc2c(C3=CCCOC3)[nH]c3ncccc23)cc1 [Example B17] | 31.9 | 190
COc1ccc(-c2[nH]c3ncccc3c2Sc2ccc(Cl)cc2)c(OC)n1 [Example B18] | 23.2 | 124
Cc1n[nH]c(C)c1-c1[nH]c2ncccc2c1Sc1ccc(Cl)cc1 [Example B19] | 65.6 | 364
Cn1cc(-c2[nH]c3ncccc3c2Sc2ccc(Cl)cc2)cn1 [Example B20] | 238 | 4160
Clc1ccc(Sc2c(-c3ccnc4[nH]ccc34)[nH]c3ncccc23)cc1 [Example B27] | 3.18 | 30
Clc1ccc(Sc2c(-c3ccsc3)[nH]c3ncccc23)cc1 [Example B28] | 217 | 1520

Structure (SMILES) | IC50 [1] [nM] | IC50 [2] [nM]
CC(=O)c1ccc(-c2[nH]c3ncccc3c2Sc2ccc(Cl)cc2)s1 [Example B29] | 10.2 | 41.1
Cc1noc(C)c1-c1[nH]c2ncccc2c1Sc1ccc(Cl)cc1 [Example B30] | 208 | 1110
Clc1ccc(Sc2c(-c3cnn4c3CCC4)[nH]c3ncccc23)cc1 [Example B31] | 113 | 686
N#Cc1cscc1-c1[nH]c2ncccc2c1Sc1ccc(Cl)cc1 [Example B32] | 94.8 | 438
Clc1ccc(Sc2c(-c3cccs3)[nH]c3ncccc23)cc1 [Example B33] | 464 | 8540
CC(C)(O)/C=C/c1[nH]c2ncccc2c1Sc1ccc(Cl)cc1 [Example B34] | 213 | 1110
Clc1ccc(Sc2c(-c3cnn4c3CCCC4)[nH]c3ncccc23)cc1 [Example B35] | 33.5 | 344
OC1CC=C(c2[nH]c3ncccc3c2Sc2ccc(Cl)cc2)CC1 (stereo not drawn) [Example B36] | 1.79 | 9.53
Clc1ccc(Sc2c(-c3ccc(C4CC4)nc3)[nH]c3ncccc23)cc1 [Example B37] | 6.42 | 21.7
CC(O)C/C=C/c1[nH]c2ncccc2c1Sc1ccc(Cl)cc1 (stereo not drawn) [Example B38] | 22.5 | 352
FC(F)(F)c1ccc(/C=C/c2[nH]c3ncccc3c2Sc2ccc(Cl)cc2)cc1 [Example B39] | 370 | 370
Clc1ccc(Sc2c(C3=CCCCC3)[nH]c3ncccc23)cc1 [Example B40] | 15.9 | 68.4
COc1cc(-c2[nH]c3ncccc3c2Sc2ccc(Cl)cc2)cnc1OC [Example B41] | 6.39 | 16.2
COc1ccc(-c2[nH]c3ncccc3c2Sc2ccc(Cl)cc2)cn1 [Example B43] | 3.42 | 18.9
FC(F)Oc1ccc(-c2[nH]c3ncccc3c2Sc2ccc(Cl)cc2)cc1 [Example B45] | 3.28 | 15.7
NC1CC=C(c2[nH]c3ncccc3c2Sc2ccc(Cl)cc2)CC1 (stereo not drawn) [Example B46] | 114 | 1410
